Test results taken from patent US20130267494A1, “1,4-OXAZEPANE DERIVATIVES” (priority 2010, published 2013).
Where a name gives a salt, the structure may show the parent alone. Read-outs that look alike come from different tables or passages of the source.

Experiments:
[1] = biological target: T1, human norepinephrine transporter (Homo sapiens, UniProt P23975); assay: Inhibitory action on human norepinephrine transporter ([3H]-norepinephrine uptake in CHO cells); assay type: cell-based; conditions: CHO, relative to inhibitory activity of 10 μM DMI as 100%
T1 construct: expressed in transfected cells
Method in brief: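 Stably transfected CHO-K1 cells plated overnight, then given test compound and [3H]-norepinephrine (20 nM final, from 200 nM) in HEPES-buffered saline with 0.5% BSA for 45 min. After PBS washes, retained radioactivity counted by scintillation. Inhibition at 10 μM or 1 μM compound expressed relative to 10 μM DMI as 100%.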

SD female rats = assay: Measurement of urethral resistance increasing effect (leak point pressure, oral administration); assay type: in vivo, rat
Experimental: The urethral resistance increasing effect in rat was measured by a modified method of Matsumoto et al. (WO2009/063992) as follows. That is, SD female rats (CLEA Japan, Inc.) were anesthetized with isoflurane (1.0%; Abbott), and the spinal cord was transected at Th8-9 to avoid the voiding reflex. After laparotomy, an intravesical pressure measurement catheter and a saline infusion catheter (PE-100; Clay Adams) were inserted into the bladder. Thereafter, the abdomen of the rat was closed with aronalpha A “Sankyo” (Daiichi Sankyo). The rat with an inserted catheter was placed in a Bollman cage (KN-326 Bollman cage TYPE III; Natsume). The intravesical pressure measurement catheter was connected to a computer via a pressure transducer (DX-100; Nihon Koden), an amplifier (RPM-6008M; Nihon Koden/303638; SAN-EI), and a multi-channel data analyzer (MP150/MP100; Biopack), and changes in the intravesical pressure were recorded on a hard disc at a frequency of 100 samples/sec. The saline infusion catheter was connected to a 50 mL syringe (Terumo) filled with saline colored with Evans Blue (Wako). The saline was infused into the bladder from the 50 mL syringe filled with saline at a rate of 0.1 mL/sec by using an infusion pump (Kds100; KD Scientific). When the saline leaked from the urethral orifice, infusion was discontinued, and the saline in the bladder was released. The maximum pressure observed during infusion of saline into the bladder and leakage thereof was taken as an LPP (Leak point pressure) value. The measurement was repeated until the LPP value was stabilized, and an average of continuous three stable LPP values was taken as the result. In addition, the measurement of drug effect was started 1 hr after the animal was placed in the Bollman cage. The LPP value (Pre value) was measured, a drug was orally administered, and the measurement of LPP value (Post value) was again started 15 min, 30 min, 1 hr, 2 hr and 4 hr after administration. The urethral resistance increasing effect by the drug was shown by the difference between the LPP value (Post value) and LPP value (Pre value). The drug was orally administered at 2.0 mL/kg, using 0.5% methylcellulose as a vehicle. For detection of a significant difference in the urethral resistance increasing effect by the drug as compared to the vehicle, the following method was used. For comparison of 3 or more groups, the Williams' test was used for a parametric test, and the Shirley-Williams' test was used for a non-parametric test. For comparison of 2 groups, the Student's t-test was used for a parametric test, and the […] was used for a non-parametric test.

[2] = read-out: inhibitory rate (%), compound 1 μM
[3] = compound 1 μM, read-out: inhibitory rate (%)

T1 sequence (P23975 whole entry): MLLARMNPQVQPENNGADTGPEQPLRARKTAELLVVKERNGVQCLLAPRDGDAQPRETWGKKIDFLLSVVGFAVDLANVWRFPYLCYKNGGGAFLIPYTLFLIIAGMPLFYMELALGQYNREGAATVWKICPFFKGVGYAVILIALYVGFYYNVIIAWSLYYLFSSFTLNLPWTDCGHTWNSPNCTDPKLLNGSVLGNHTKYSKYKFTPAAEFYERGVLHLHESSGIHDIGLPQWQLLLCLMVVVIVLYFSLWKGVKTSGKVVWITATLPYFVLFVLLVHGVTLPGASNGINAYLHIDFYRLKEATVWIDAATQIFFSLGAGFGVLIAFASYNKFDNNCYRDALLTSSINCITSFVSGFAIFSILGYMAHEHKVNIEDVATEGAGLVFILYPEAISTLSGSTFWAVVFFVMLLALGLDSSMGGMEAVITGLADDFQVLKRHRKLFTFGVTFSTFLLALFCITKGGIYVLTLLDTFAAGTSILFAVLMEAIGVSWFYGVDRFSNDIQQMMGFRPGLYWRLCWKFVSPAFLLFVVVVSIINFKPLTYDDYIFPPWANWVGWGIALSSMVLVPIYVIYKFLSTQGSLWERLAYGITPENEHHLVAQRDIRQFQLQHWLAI

SMILES	inhibition at 1 µM [1, 2]	inhibition at 10 µM ([1]; read-out: inhibitory rate (%), compound 10 μM)	inhibition at 1 µM [1, 3]	urethral resistance increasing effect (cmH2O) (SD female rats; 1.0 mg/kg oral, 15 min later)	urethral resistance increasing effect (cmH2O) (SD female rats; 1.0 mg/kg oral, 30 min later)	urethral resistance increasing effect (cmH2O) (SD female rats; 3.0 mg/kg oral, 15 min later)	urethral resistance increasing effect (cmH2O) (SD female rats; 3.0 mg/kg oral, 30 min later)	urethral resistance increasing effect (cmH2O) (SD female rats; 10.0 mg/kg oral, 15 min later)	urethral resistance increasing effect (cmH2O) (SD female rats; 10.0 mg/kg oral, 30 min later)	urethral resistance increasing effect (cmH2O) (SD female rats; 0.3 mg/kg oral, 15 min later)	urethral resistance increasing effect (cmH2O) (SD female rats; 0.3 mg/kg oral, 30 min later)	urethral resistance increasing effect (cmH2O) (SD female rats; 30.0 mg/kg oral, 15 min later)	urethral resistance increasing effect (cmH2O) (SD female rats; 30.0 mg/kg oral, 30 min later)
CC(=O)NC[C@H]1CNCCO[C@@H]1c1ccc(Cl)c(Cl)c1 (racemic) [Example 6, N-{[(6RS,7SR)-7-(3,4-dichlorophenyl)-1,4-oxazepan-6-yl]methyl}acetamide monohydrochloride]	95%	97%											
O=c1[nH]c(-c2cccn(C[C@@H]3CNCCO[C@H]3c3ccc(Cl)c(Cl)c3)c2=O)no1 [Example 31, 1-{[(6S,7R)-7-(3,4-dichlorophenyl)-1,4-oxazepan-6-yl]methyl}-3-(5-oxo-4,5-dihydro-1,2,4-oxadiazol-3-yl)pyridin-2(1H)-one monohydrochloride]			108%	6.7 ± 2.5 cmH2O	9.0 ± 3.8 cmH2O	13.2 ± 3.8 cmH2O	14.5 ± 3.6 cmH2O	16.2 ± 2.1 cmH2O	14.3 ± 2.2 cmH2O				
CC(=O)NC[C@@H]1CNCCO[C@H]1c1ccc(Cl)c(Cl)c1 [Example 32, N-{[(6S,7R)-7-(3,4-dichlorophenyl)-1,4-oxazepan-6-yl]methyl}acetamide 0.5 fumarate]	93%							18.3 ± 2.1 cmH2O	17.1 ± 3.2 cmH2O				
COCC(=O)NC[C@@H]1CNCCO[C@H]1c1ccc(Cl)c(Cl)c1 [Example 33, N-{[(6S,7R)-7-(3,4-dichlorophenyl)-1,4-oxazepan-6-yl]methyl}-2-methoxyacetamide monohydrochloride]			100%					21.8 ± 3.3 cmH2O	20.9 ± 3.4 cmH2O				
CC(=O)N[C@@H]1CNCCO[C@H]1c1ccc(Cl)c(Cl)c1 [Example 36, N-[(6R,7S)-7-(3,4-dichlorophenyl)-1,4-oxazepan-6-yl]acetamide monofumarate]	101%							15.0 ± 1.8 cmH2O	14.3 ± 1.8 cmH2O				
NS(=O)(=O)N[C@@H]1CNCCO[C@H]1c1ccc(Cl)c(Cl)c1 [Example 37, N-[(6R,7S)-7-(3,4-dichlorophenyl)-1,4-oxazepan-6-yl]sulfamide monohydrochloride]			102%			8.5 ± 1.4 cmH2O	7.6 ± 1.6 cmH2O	16.3 ± 1.2 cmH2O	17.2 ± 1.9 cmH2O				
COCC(=O)NC[C@@H]1CNCCO[C@H]1c1ccc(Cl)c(F)c1 [Example 38, N-{[(6S,7R)-7-(4-chloro-3-fluorophenyl)-1,4-oxazepan-6-yl]methyl}-2-methoxyacetamide monohydrochloride]			102%	12.9 ± 3.3 cmH2O	9.3 ± 1.6 cmH2O	18.0 ± 2.5 cmH2O	17.4 ± 2.4 cmH2O	21.6 ± 2.9 cmH2O	21.3 ± 3.3 cmH2O	4.2 ± 1.7 cmH2O	5.1 ± 1.7 cmH2O		
[2H]C([2H])([2H])OCC(=O)NC[C@@H]1CNCCO[C@H]1c1ccc(Cl)c(F)c1 [Example 39, N-{[(6S,7R)-7-(4-chloro-3-fluorophenyl)-1,4-oxazepan-6-yl]methyl}-2-[(^2H3)methyloxy]acetamide monohydrochloride]			102%	12.3 ± 2.2 cmH2O	8.7 ± 2.6 cmH2O	15.8 ± 1.7 cmH2O	14.1 ± 1.5 cmH2O	17.9 ± 1.8 cmH2O	17.1 ± 2.3 cmH2O				
CCOCC(=O)NC[C@@H]1CNCCO[C@H]1c1ccc(Cl)c(F)c1 [Example 40, N-{[(6S,7R)-7-(4-chloro-3-fluorophenyl)-1,4-oxazepan-6-yl]methyl}-2-ethoxyacetamide monohydrochloride]			104%	8.5 ± 1.9 cmH2O	8.6 ± 2.6 cmH2O	11.4 ± 1.9 cmH2O	12.8 ± 1.6 cmH2O	16.6 ± 2.0 cmH2O	17.2 ± 2.2 cmH2O				
CC(C)OCC(=O)NC[C@@H]1CNCCO[C@H]1c1ccc(Cl)c(F)c1 [Example 41, N-{[(6S,7R)-7-(4-chloro-3-fluorophenyl)-1,4-oxazepan-6-yl]methyl}-2-(1-methylethoxy)acetamide monohydrochloride]			101%			9.8 ± 3.8 cmH2O	9.6 ± 2.3 cmH2O	17.8 ± 1.6 cmH2O	16.1 ± 1.5 cmH2O				
O=c1[nH]c(-c2cccn(C[C@@H]3CNCCO[C@H]3c3ccc(Cl)c(F)c3)c2=O)no1 [Example 43, 1-{[(6S,7R)-7-(4-chloro-3-fluorophenyl)-1,4-oxazepan-6-yl]methyl}-3-(5-oxo-4,5-dihydro-1,2,4-oxadiazol-3-yl)pyridin-2(1H)-one monohydrochloride]	102%					8.4 ± 3.0 cmH2O	11.8 ± 2.8 cmH2O	13.9 ± 2.1 cmH2O	14.8 ± 0.9 cmH2O				
O=C(O)c1cccn(C[C@@H]2CNCCO[C@H]2c2ccc(Cl)c(F)c2)c1=O [Example 44, 1-{[(6S,7R)-7-(4-chloro-3-fluorophenyl)-1,4-oxazepan-6-yl]methyl}-2-oxo-1,2-dihydropyridine-3-carboxylic acid monohydrochloride]			102%	8.6 ± 2.6 cmH2O	9.8 ± 2.6 cmH2O	15.5 ± 3.7 cmH2O	13.7 ± 3.3 cmH2O	18.8 ± 1.5 cmH2O	16.4 ± 1.5 cmH2O	0.1 ± 2.5 cmH2O	2.2 ± 2.6 cmH2O		
OC[C@H](O)[C@@H]1OCCNC[C@H]1c1ccc(Cl)c(Cl)c1 [Example 45, (1S)-1-[(6R,7R)-6-(3,4-dichlorophenyl)-1,4-oxazepan-7-yl]ethane-1,2-diol monohydrochloride]			105%	10.0 ± 2.6 cmH2O	13.4 ± 1.2 cmH2O	16.9 ± 1.4 cmH2O	17.5 ± 2.8 cmH2O	21.0 ± 2.0 cmH2O	22.1 ± 2.0 cmH2O	6.4 ± 1.3 cmH2O	9.3 ± 3.3 cmH2O		
O=c1[nH]c(-c2cccnc2O[C@@H]2CNCCO[C@H]2c2ccc(Cl)c(F)c2)no1 [Example 556, 3-(2-{[(6R,7S)-7-(4-chloro-3-fluorophenyl)-1,4-oxazepan-6-yl]oxy}pyridin-3-yl)-1,2,4-oxadiazol-5(4H)-one monohydrochloride]			101%			6.0 ± 2.0 cmH2O	5.0 ± 2.9 cmH2O	13.4 ± 1.7 cmH2O	10.6 ± 1.8 cmH2O			17.8 ± 3.4 cmH2O	17.5 ± 2.3 cmH2O
